Data taken from the NIST ThermoML archive (doi:10.1016/j.tca.2007.05.014).

Experiments:
[1] = Crystal; Adiabatic calorimetry
[2] = Molar enthalpy of transition or fusion; settings: Crystal; Adiabatic calorimetry
[3] = molar heat capacity at constant pressure; settings: 101.33 kPa, Vacuum adiabatic calorimetry

c1ccc(CSSCc2ccccc2)cc1 [1,4-diphenyl-2,3-dithiabutane]
Settings	Molar enthalpy of transition or fusion [kcal/mol]	Triple point temperature [K]
[1]	–	341.72
[2]	10.75	–

[3]
Settings	molar heat capacity at constant pressure [J/K/mol]
80 K, Crystal	108.82
80.3 K, Crystal	108.33
84.06 K, Crystal	111.79
85 K, Crystal	111.44
87.01 K, Crystal	113.48
90 K, Crystal	116.01
90.01 K, Crystal	116.34
92.93 K, Crystal	118.76
95 K, Crystal	122.1
95.91 K, Crystal	122.02
99.41 K, Crystal	127.8
100 K, Crystal	129.33
103.24 K, Crystal	135.01
105 K, Crystal	137.39
106.95 K, Crystal	141.28
110 K, Crystal	145.99
110.69 K, Crystal	147.39
114.47 K, Crystal	153.91
115 K, Crystal	154.9
118.16 K, Crystal	160.1
120 K, Crystal	163.94
121.87 K, Crystal	169.57
125 K, Crystal	172.98
125.68 K, Crystal	176.87
129.35 K, Crystal	179.77
130 K, Crystal	181.89
132.96 K, Crystal	185.92
135 K, Crystal	190.59
136.61 K, Crystal	192.1
140 K, Crystal	199.02
140.35 K, Crystal	197.02
144.38 K, Crystal	205.28
145 K, Crystal	207.16
147.99 K, Crystal	211.7
150 K, Crystal	214.97
151.7 K, Crystal	217.62
155 K, Crystal	222.48
155.35 K, Crystal	222.51
158.92 K, Crystal	228.58
160 K, Crystal	229.68
162.44 K, Crystal	233.74
165 K, Crystal	236.6
165.91 K, Crystal	238.97
169.42 K, Crystal	243.63
170 K, Crystal	243.29
172.99 K, Crystal	248.31
175 K, Crystal	249.78
176.5 K, Crystal	252.64
179.96 K, Crystal	257.05
180 K, Crystal	256.1
183.38 K, Crystal	260.66
185 K, Crystal	262.31
186.84 K, Crystal	265.34
190 K, Crystal	268.46
190.36 K, Crystal	269.4
193.83 K, Crystal	273.35
195 K, Crystal	274.58
197.26 K, Crystal	277.29
200 K, Crystal	280.71
200.65 K, Crystal	280.28
204 K, Crystal	284.27
205 K, Crystal	286.91
207.4 K, Crystal	288.01
210 K, Crystal	293.18
210.85 K, Crystal	291.95
214.25 K, Crystal	296.05
215 K, Crystal	299.57
217.6 K, Crystal	300.68
220 K, Crystal	306.1
220.9 K, Crystal	305.02
224.17 K, Crystal	310.55
225 K, Crystal	312.77
227.41 K, Crystal	316.71
230 K, Crystal	319.61
230.64 K, Crystal	324.45
234.1 K, Crystal	331.98
235 K, Crystal	326.59
237.58 K, Crystal	333.36
240 K, Crystal	333.73
240.9 K, Crystal	338.86
244.3 K, Crystal	341.63
245 K, Crystal	341.01
247.7 K, Crystal	342.44
250 K, Crystal	348.41
251 K, Crystal	347.57
254.37 K, Crystal	353.48
255 K, Crystal	355.91
257.79 K, Crystal	359.5
260 K, Crystal	363.48
261.22 K, Crystal	363.54
264.69 K, Crystal	369.67
265 K, Crystal	371.1
268.17 K, Crystal	374.81
270 K, Crystal	378.73
271.64 K, Crystal	381.1
275 K, Crystal	386.35
275.11 K, Crystal	386.26
278.65 K, Crystal	391.99
280 K, Crystal	393.93
282.26 K, Crystal	396.6
285 K, Crystal	401.44
285.84 K, Crystal	402.1
289.39 K, Crystal	410.38
290 K, Crystal	408.86
292.9 K, Crystal	417.2
295 K, Crystal	416.2
296.45 K, Crystal	417.2
298.15 K, Crystal	420.77
299.98 K, Crystal	422.24
300 K, Crystal	423.44
303 K, Crystal	427.75
303.49 K, Crystal	427.76
307 K, Crystal	437.99
310.49 K, Crystal	432.45
313.97 K, Crystal	443.61
317.47 K, Crystal	440.2
320.92 K, Crystal	443.39
324.15 K, Crystal	448.33
327.24 K, Crystal	479.87
330.68 K, Crystal	494.5
334.08 K, Crystal	565.94
337.09 K, Crystal	842.59
339.29 K, Crystal	2123.3
340.75 K, Crystal	6689.9
344.92 K, Liquid	1138.3
350.93 K, Liquid	545.43
355 K, Liquid	545.41
355.68 K, Liquid	550.14
359.31 K, Liquid	554.64
360 K, Liquid	555.11
362.99 K, Liquid	559.12
365 K, Liquid	561.67
366.65 K, Liquid	562.71
370 K, Liquid	564.76
370.29 K, Liquid	565.83
373.91 K, Liquid	569.68
375 K, Liquid	580.96
377.39 K, Liquid	643.17
